Patent US8673578B2, “Methods of identifying antagonists of the hTAS2R46 bitter taste receptor” (Deutsches Institut für Ernahrungsforschung Potsdam-Rehbrücke, priority 2009, dated 2014)

Legend:
hTAS2R46 [1] = target: T1, hTAS2R46 (Homo sapiens, UniProt P59540); experiment: calcium imaging (FLIPR), activation of hTAS2R-transfected HEK293T-Gα16gust44 cells; assay type: cell-based; conditions: absence of agonist
T1 construct: expressed in transfected cells; host or cells: HEK293T cells stably expressing chimeric Gα16gust44, transient transfection
T1 sequence (P59540 1-309): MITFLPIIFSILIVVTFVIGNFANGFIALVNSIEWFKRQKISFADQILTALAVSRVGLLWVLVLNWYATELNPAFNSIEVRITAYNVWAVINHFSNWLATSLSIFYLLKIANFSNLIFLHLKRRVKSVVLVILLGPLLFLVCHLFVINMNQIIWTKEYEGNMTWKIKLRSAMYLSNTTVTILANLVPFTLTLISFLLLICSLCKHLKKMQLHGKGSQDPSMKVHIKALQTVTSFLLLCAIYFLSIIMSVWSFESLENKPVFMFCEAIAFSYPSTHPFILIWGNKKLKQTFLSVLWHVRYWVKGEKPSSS
Description: (§1) Human TAS2R cDNAs were cloned into pcDNA5/FRT (Invitrogen, San Diego, Calif.). For adequate plasma membrane targeting, receptor cDNA was fused to the aminoterminal sequence of the rat somatostatin type 3 receptor at the aminoterminus of the recombinant protein (Bufe, B., T. Hofmann, et al. (2002) Nat Genet. 32(3): 397-401). For immunological detection, the Herpes simplex Glycoprotein D epitope was supplemented at the carboxyterminus of the recombinant protein (Bufe et al., supra). Receptor constructs were transiently transfected into HEK293T cells stably expressing the chimeric G protein subunit Gα16gust44 (Ueda, T., S. Ugawa, et al. (2003) J Neurosci 23(19): 7376-80) using Lipofectamine 2000 (Invitrogen, San Diego, Calif.) in 96-well plates.
Calcium Imaging experiments were performed 24 h after transfection using a Fluorometric Imaging Plate Reader (FLIPR, Molecular Devices, Munich, Germany) as previously described (Bufe et al., supra). Taste active compounds were ordered from Sigma (Sigma-Aldrich, Taufkirchen, Germany). Absinthin, 3β hydroxy dihydro costunolide and 3β hydroxy pelenolide were kindly provided by Giovanni Appendino (Novara, Italy). Test substances were directly dissolved in C1 buffer (130 mM NaCl, 10 mM Na-Hepes, 10 mM Glucose, 5 mM KCl, 2 mM CaCl2, pH 7.4) or in DMSO, respectively. DMSO stocks were further diluted in C1 buffer not exceeding a final DMSO concentration of 1% on the cells. For the investigation of antagonistic effects, test substances were premixed. Agonists were applied at concentrations corresponding to EC90, except where indicated otherwise (Table 2). Data were collected from 3 independent experiments performed in quadruplicates and processed with SigmaPlot (SPSS, Chicago, Ill.). Fluorescence signals after application of test substances were corrected for and normalized to background fluorescence (ΔF/F═(F−F0)/F0), and baseline noise was subtracted. Calculation of dose-response curves was done by nonlinear regression using the function f(y)=((a−d)/(1+(x/EC50)^nH)+d). […]
(§2) Finally, the impact of chemical modifications on the antagonistic properties of 3β hydroxy dihydro costunolide on hTAS2R46-expressing cells was studied. Derivatives of 3β hydroxy dihydro costunolide with site-directed modifications at C3 and C11 were generated (FIG. 7A) These derivatives were tested for activation or inhibition of hTAS2R46-expressing cells in the absence or presence of the agonist strychnine (3 μM) and half-maximum effective concentrations (EC50) or half-maximal inhibitory concentrations were calculated (FIG. 7B).

hTAS2R46 [2] = target: T1, hTAS2R46; experiment: calcium imaging (FLIPR), effect on agonist-dependent hTAS2R activation; assay type: cell-based; conditions: presence of agonist strychnine 3 μM
Description: as §1
Calcium Imaging experiments were performed 24 h after transfection using a Fluorometric Imaging Plate Reader (FLIPR, Molecular Devices, Munich, Germany) as previously described (Bufe et al., supra). Taste active compounds were ordered from Sigma (Sigma-Aldrich, Taufkirchen, Germany). Absinthin, 3β hydroxy dihydro costunolide and 3β hydroxy pelenolide were kindly provided by Giovanni Appendino (Novara, Italy). Test substances were directly dissolved in C1 buffer (130 mM NaCl, 10 mM Na-Hepes, 10 mM Glucose, 5 mM KCl, 2 mM CaCl2, pH 7.4) or in DMSO, respectively. DMSO stocks were further diluted in C1 buffer not exceeding a final DMSO concentration of 1% on the cells. For the investigation of antagonistic effects, test substances were premixed. Agonists were applied at concentrations corresponding to EC90, except where indicated otherwise (Table 2). Data were collected from 3 independent experiments performed in quadruplicates and processed with SigmaPlot (SPSS, Chicago, Ill.). Fluorescence signals after application of test substances were corrected for and normalized to background fluorescence (ΔF/F═(F−F0)/F0), and baseline noise was subtracted. Calculation of dose-response curves was done by nonlinear regression using the function f(y)=((a−d)/(1+(x/EC50)^nH)+d).
To test 3β hydroxy dihydro costunolide and 3β hydroxy pelenolide for antagonistic or enhancing effects on hTAS2R activation, transfected cells were stimulated with cognate agonist bitter substances at EC90 concentrations (Table 2) without 3β hydroxy dihydro costunolide and 3β hydroxy pelenolide. The cellular responses after application of the agonist alone were set to 100%, responses obtained after coapplication of agonists and 100 μM 3β hydroxy dihydro costunolide or 100 μM 3β hydroxy pelenolide are shown relative to this value (FIG. 4).
Next we determined concentrations of half-maximal inhibition of TAS2R46. FIG. 5 illustrates the concentration-inhibition curves of TAS2R46 activated by picrotoxinin in the presence of various concentrations of 3β hydroxy dihydro costunolide or 3β hydroxy pelenolide. […] In agreement with the data described above the costunolide analog appears to be more potently inhibiting TAS2R46 than the pelenolide analog. […] As expected 3β hydroxy pelenolide has to be employed at ˜6 fold higher concentrations than 3β hydroxy dihydro costunolide to achieve 50% receptor inhibition.
Next, we established concentration-response curves for strychnine at TAS2R46 in the presence of various concentrations of 3β hydroxy dihydro costunolide.
as §2

Row | action on hTAS2R46-expressing cells (activation) (hTAS2R46 [1]) | Structure (SMILES) | action on hTAS2R46-expressing cells (inhibition) (hTAS2R46 [2])
1 | – | C/C1=C\CC(=O)/C(C)=C/[C@H]2OC(=O)[C@@H](C)[C@@H]2CC1 [3keto dihydro costunolide] | antagonists
2 | no influence on the agonistic properties | C/C1=C\[C@H]2OC(=O)[C@@H](C)[C@@H]2CC/C(C)=C/CC1 [dihydro costunolide] | –
3 | agonist | C=C1C(=O)O[C@@H]2/C=C(\C)CC/C=C(\C)CC[C@@H]12 [Costunolide, reference compound] | –

Row | Structure (SMILES) | action on hTAS2R46-expressing cells (activation) (hTAS2R46 [1]) | action on hTAS2R46-expressing cells (inhibition) (hTAS2R46 [2])
4 | CC(=O)O[C@H]1C/C=C(\C)CC[C@H]2[C@H](C)C(=O)O[C@@H]2/C=C/1C [3β hydroxy dihydro costunolide acetate] | agonists | –
